Results: US9120812B2, “Pyrimidooxazocine derivatives as mTOR-inhibitors” (SANOFI, priority 2012, dated 2015)
Like-named read-outs stand apart in the source and are kept apart here.

Columns and labels:
[1] = molecular target: mTOR (human recombinant aa mTOR 1360-2549) (Homo sapiens (Human), UniProt P42345); assay: mTOR enzymatic test by TR-FRET (phosphorylation of GFP-4EBP1); type: biochemical
Summary of the method: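 TR-FRET detection of GFP-4EBP1 phosphorylation by a terbium-labelled anti-phospho-Thr46 antibody. Kinase reaction ran 30 min at room temperature, was quenched with EDTA (10 mM final) plus Tb-antibody (2 nM final) and left 60 min. Emission at 520 and 490 nm after 340 nm excitation, reported as the 520/490 ratio.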

[2] = molecular target: PI3Kα (p110α/p85α) (Homo sapiens (Human), UniProt P42336); assay: PI3Kα enzymatic test by measuring the consumption of ATP; type: biochemical
Chain of PI3Kα (p110α/p85α) (P42336 whole entry): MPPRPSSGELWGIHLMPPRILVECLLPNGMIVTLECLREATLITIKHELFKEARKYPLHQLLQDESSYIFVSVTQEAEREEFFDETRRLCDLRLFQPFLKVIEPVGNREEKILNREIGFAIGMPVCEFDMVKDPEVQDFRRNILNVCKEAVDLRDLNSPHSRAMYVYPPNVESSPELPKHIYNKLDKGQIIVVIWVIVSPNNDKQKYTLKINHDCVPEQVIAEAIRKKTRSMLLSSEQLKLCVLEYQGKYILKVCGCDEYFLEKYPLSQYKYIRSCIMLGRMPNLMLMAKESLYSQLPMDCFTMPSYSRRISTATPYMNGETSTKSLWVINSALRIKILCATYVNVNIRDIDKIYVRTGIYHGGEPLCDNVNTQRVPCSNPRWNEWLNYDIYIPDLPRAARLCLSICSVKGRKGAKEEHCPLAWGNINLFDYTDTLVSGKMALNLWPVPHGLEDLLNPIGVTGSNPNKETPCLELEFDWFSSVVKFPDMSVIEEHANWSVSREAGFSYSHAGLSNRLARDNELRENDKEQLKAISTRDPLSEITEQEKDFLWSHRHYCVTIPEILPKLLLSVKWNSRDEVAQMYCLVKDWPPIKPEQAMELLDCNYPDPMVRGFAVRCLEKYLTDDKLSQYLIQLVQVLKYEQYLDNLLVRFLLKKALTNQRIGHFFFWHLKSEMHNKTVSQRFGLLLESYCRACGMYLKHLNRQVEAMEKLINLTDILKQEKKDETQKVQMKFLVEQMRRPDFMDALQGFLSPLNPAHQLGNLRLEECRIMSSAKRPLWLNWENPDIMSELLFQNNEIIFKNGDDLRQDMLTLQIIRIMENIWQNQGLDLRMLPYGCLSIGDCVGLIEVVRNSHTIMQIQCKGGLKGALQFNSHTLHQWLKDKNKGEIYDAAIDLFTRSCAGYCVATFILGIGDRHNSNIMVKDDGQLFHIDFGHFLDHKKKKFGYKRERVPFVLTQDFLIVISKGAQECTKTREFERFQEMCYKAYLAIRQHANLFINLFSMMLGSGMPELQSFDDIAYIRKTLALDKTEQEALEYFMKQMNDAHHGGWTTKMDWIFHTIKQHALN
Chain of PI3Kα (p110α/p85α) (P27986 whole entry partner): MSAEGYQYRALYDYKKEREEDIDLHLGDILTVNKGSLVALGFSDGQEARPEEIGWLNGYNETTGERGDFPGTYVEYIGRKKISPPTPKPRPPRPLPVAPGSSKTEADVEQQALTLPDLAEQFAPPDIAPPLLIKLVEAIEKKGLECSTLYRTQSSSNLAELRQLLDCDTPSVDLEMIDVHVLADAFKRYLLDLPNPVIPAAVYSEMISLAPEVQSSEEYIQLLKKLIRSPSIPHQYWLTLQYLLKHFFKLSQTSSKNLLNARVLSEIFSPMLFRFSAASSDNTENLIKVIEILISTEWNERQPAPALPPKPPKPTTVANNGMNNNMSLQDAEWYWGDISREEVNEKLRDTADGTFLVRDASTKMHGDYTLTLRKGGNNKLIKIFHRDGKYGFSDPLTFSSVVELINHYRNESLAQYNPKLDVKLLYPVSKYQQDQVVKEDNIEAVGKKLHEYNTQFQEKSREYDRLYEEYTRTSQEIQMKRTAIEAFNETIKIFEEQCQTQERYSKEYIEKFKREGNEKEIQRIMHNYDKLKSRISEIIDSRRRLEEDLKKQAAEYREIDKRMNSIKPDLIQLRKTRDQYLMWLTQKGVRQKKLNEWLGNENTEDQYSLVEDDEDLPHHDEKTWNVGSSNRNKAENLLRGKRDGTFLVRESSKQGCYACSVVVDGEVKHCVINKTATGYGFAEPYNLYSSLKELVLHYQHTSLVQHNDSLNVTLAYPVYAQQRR
Summary of the method: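 p110α/p85α (1.7 μg/ml) with 50 μM PIP2 and 2 μM ATP in pH 7.5 Tris buffer with EGTA, MgCl2, Chaps, DTT; reaction 90 min. Remaining ATP measured by luciferin/luciferase luminescence; IC50 from threefold serial dilutions spanning at least 10 000-fold.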

[3] = test system: U87MG tumour cells; assay: Test of in vitro proliferation of U87MG tumour cells; type: cell-based; conditions: Homo sapiens, U-87 MG, 72 h, U87MG cells, 72 hours; read-out: U87 Cell Proliferation IC50
Experimental: Model 4: Test of in vitro Proliferation of U87MG Tumour Cells.
The cell growth is determined with the reagent CellTiter 96 AQueous One Solution Cell Proliferation Assay from Promega (Cat. No. G3581).

[4] = test system: Akt-pS473 in U87MG cells
Experimental: Model 3: Cellular Test of Phosphorylation of the Epitope S473 of the Akt Protein on the U87MG Line Via an ELISA Test
An electrochemiluminescence signal is generated by a ruthenium-labelled anti-rabbit antibody.
After culturing for 16-20 hours (the cells are at 100% of confluence) at 37° C. under 5% CO2, 1 μl of the chemical compounds in 100% DMSO (1% DMSO final concentration on the cells) is added. The cells are incubated with the compounds for 3 hours at 37° C. under 5% CO2.
The free sites are blocked with 150 μl/well of a buffer of 50 mM Tris pH 7.5, 0.15 M NaCl, 0.02% Tween 20, 3% BSA with stirring at 450 rpm for 1 hour at room temperature, followed by a step of washing with 3×300 μl of a buffer of 50 mM Tris pH 7.5, 0.15 M NaCl, 0.02% Tween 20.
15 μl of cell lysate are mixed with 15 μl of a 50 mM buffer of Tris pH 7.5, 0.15 M NaCl, 0.02% Tween 20, 1% BSA in a precoated ELISA plate (see above), and incubated for 1 hour at room temperature with stirring, followed by a step of washing with 3×300 μl of a buffer of 50 mM Tris pH 7.5, 0.15 M NaCl, 0.02% Tween 20. The pS473 epitope of Akt is detected with a rabbit polyclonal antibody (Cell Signaling, SC9271), diluted 100-fold in 50 mM Tris pH 7.5, 0.15 M NaCl, 0.02% Tween 20, 1% BSA, 25 μl/well (incubation for 1 hour at room temperature with stirring at 450 rpm).
After washing (see above), revelation is performed with a ruthenium-labelled anti-rabbit antibody (MSD R32AB1), diluted 3000-fold in a 50 mM buffer of Tris pH 7.5, 0.15 M NaCl, 0.02% Tween 20, 1% BSA, 25 μl/well, followed by incubation for 1 hour at room temperature with stirring at 450 rpm, and the plates are covered with aluminium.
After a further washing step, the plates are emptied and 150 μl of MSD Read Buffer T diluted fourfold with water are added. The electrochemiluminescence is measured on the MSD Sector Imager 6000.

[5] = Homo sapiens, U-87 MG, read-out: U87 Akt-pS473 % Inhibition or IC50, nM (IC50), U87MG cells

Chain of mTOR (human recombinant aa mTOR 1360-2549) (P42345 1360-2549): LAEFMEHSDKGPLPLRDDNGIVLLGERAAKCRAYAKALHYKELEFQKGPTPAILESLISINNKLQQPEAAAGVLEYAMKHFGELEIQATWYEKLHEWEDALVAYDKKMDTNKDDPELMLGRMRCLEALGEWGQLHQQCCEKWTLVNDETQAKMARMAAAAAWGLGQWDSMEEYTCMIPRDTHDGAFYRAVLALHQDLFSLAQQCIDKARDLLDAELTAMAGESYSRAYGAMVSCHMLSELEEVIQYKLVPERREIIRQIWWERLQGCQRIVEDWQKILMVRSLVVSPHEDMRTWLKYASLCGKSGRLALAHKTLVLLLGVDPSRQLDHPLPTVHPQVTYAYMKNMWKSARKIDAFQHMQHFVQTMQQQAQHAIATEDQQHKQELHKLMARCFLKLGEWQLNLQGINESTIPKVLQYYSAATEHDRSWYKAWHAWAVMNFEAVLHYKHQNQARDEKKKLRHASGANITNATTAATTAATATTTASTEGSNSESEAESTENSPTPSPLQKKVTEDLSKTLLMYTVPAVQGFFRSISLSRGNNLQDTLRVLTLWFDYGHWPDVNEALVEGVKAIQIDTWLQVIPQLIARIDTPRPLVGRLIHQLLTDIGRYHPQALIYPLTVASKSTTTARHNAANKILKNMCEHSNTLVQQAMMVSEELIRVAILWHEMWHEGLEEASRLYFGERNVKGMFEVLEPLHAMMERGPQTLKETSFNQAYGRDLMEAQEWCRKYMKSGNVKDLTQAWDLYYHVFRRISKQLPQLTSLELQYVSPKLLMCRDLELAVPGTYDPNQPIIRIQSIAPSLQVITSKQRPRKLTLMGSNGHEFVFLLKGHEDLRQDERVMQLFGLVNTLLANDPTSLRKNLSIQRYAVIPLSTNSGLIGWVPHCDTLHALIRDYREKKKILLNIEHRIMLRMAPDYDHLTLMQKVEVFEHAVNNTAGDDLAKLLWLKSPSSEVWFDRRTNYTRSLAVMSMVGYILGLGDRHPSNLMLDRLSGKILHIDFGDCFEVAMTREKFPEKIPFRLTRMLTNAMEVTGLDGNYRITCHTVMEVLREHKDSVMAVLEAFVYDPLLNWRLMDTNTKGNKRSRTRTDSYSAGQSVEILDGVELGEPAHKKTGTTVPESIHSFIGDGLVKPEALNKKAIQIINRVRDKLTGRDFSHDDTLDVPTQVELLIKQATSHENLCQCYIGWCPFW

SMILES	IC50 [1] [nM]	PI3Ka IC50 [2] [nM]	IC50 [3] [nM]	IC50 [4, 5] [nM]	IC50 ([4]; read-out: U87 Akt-pS473 % Inhibition or IC50, nM (IC50), U87MG cells) [nM]
CCN1CC(C)(C)Oc2nc(N3CC4CCC(C3)O4)nc(-c3ccc(Nc4nc5ccccc5[nH]4)cc3)c2C1=O [Example 118, 4-[4-(1H-Benzimidazol-2-ylamino)phenyl]-6-ethyl-8,8-dimethyl-2-(8-oxa-3-azabicyclo[3.2.1]oct-3-yl)-7,8-dihydro-6H-9-oxa-1,3,6-triazabenzocyclohepten-5-one]	58	5040	233	32	–
CCN1CC(C)(C)Oc2nc(N3CC4CCC(C3)O4)nc(-c3ccc(NC(=O)NCCCO)cc3)c2C1=O [Example 119, 1-{4-[6-Ethyl-8,8-dimethyl-2-(8-oxa-3-azabicyclo[3.2.1]oct-3-yl)-5-oxo-5,6,7,8-tetrahydro-9-oxa-1,3,6-triazabenzocyclohepten-4-yl]phenyl}-3-(3-hydroxypropyl)urea]	104	>10000	> 3000	1060	–
CCNC(=O)Nc1ccc(-c2nc(N3CC4CCC(C3)O4)nc3c2C(=O)N(CCC(=O)OC(C)(C)C)CC(C)(C)O3)cc1 [Example 120, 3-[4-[4-(3-Ethylureido)phenyl]-8,8-dimethyl-2-(8-oxa-3-azabicyclo[3.2.1]oct-3-yl)-5-oxo-7,8-dihydro-5H-9-oxa-1,3,6-triazabenzocyclohepten-6-yl]propionic acid tert-butyl ester]	351	>10000	2260	1180	–
CCN1CC(C)(C)Oc2nc(N3CC4CCC(C3)O4)nc(-c3ccc(Nc4nnc(C)s4)cc3)c2C1=O [Example 121, 6-Ethyl-8,8-dimethyl-4-[4-(5-methyl-[1,3,4]thiadiazol-2-ylamino)phenyl]-2-(8-oxa-3-azabicyclo[3.2.1]oct-3-yl)-7,8-dihydro-6H-9-oxa-1,3,6-triazabenzocyclohepten-5-one]	66	>10000	802	130	–
CCN1CC(C)(C)Oc2nc(N3CC4CCC(C3)O4)nc(-c3ccc(NC(=O)NCCF)cc3)c2C1=O [Example 123, 1-{4-[6-Ethyl-8,8-dimethyl-2-(8-oxa-3-azabicyclo[3.2.1]oct-3-yl)-5-oxo-5,6,7,8-tetrahydro-9-oxa-1,3,6-triazabenzocyclohepten-4-yl]phenyl}-3-(2-fluoroethyl)urea]	22	3627	221	150	–
CCN1CC(C)(C)Oc2nc(N3CC4CCC(C3)O4)nc(-c3ccc(NC(=O)Nc4ccc(OC)nc4)c(F)c3)c2C1=O [Example 124, 1-{4-[6-Ethyl-8,8-dimethyl-2-(8-oxa-3-azabicyclo[3.2.1]oct-3-yl)-5-oxo-5,6,7,8-tetrahydro-9-oxa-1,3,6-triazabenzocyclohepten-4-yl]-2-fluorophenyl}-3-(6-methoxypyridin-3-yl)urea]	20	>10000	115	–	61
CCN1CC(C)(C)Oc2nc(N3CC4CCC(C3)O4)nc(-c3ccc(NC(=O)Nc4cnn(C)c4)cc3)c2C1=O [Example 126, 1-{4-[6-Ethyl-8,8-dimethyl-2-(8-oxa-3-azabicyclo[3.2.1]oct-3-yl)-5-oxo-5,6,7,8-tetrahydro-9-oxa-1,3,6-triazabenzocyclohepten-4-yl]phenyl}-3-(1-methyl-1H-pyrazol-4-yl)urea]	13	2963	225	68	–
CCN1CC(C)(C)Oc2nc(N3CC4CCC(C3)O4)nc(-c3ccc(NC(=O)Nc4cccc(OC)c4)cc3)c2C1=O [Example 127, 1-{4-[6-Ethyl-8,8-dimethyl-2-(8-oxa-3-azabicyclo[3.2.1]oct-3-yl)-5-oxo-5,6,7,8-tetrahydro-9-oxa-1,3,6-triazabenzocyclohepten-4-yl]phenyl}-3-(3-methoxyphenyl)urea]	16	3646	79	24	–
CCN1CC(C)(C)Oc2nc(N3CC4CCC(C3)O4)nc(-c3ccc(NC(=O)NCC4CCS(=O)(=O)C4)c(F)c3)c2C1=O (stereo not drawn) [Example 129, 1-(1,1-Dioxotetrahydro-1λ6-thiophen-3-ylmethyl)-3-{4-[6-ethyl-8,8-dimethyl-2-(8-oxa-3-azabicyclo[3.2.1]oct-3-yl)-5-oxo-5,6,7,8-tetrahydro-9-oxa-1,3,6-triazabenzocyclohepten-4-yl]-2-fluorophenyl}urea]	1380	>10000	> 10000	> 3000	–
CCN1CC(C)(C)Oc2nc(N3CC4CCC(C3)O4)nc(-c3ccc(NC(=O)NCC4CCN(C)CC4)c(F)c3)c2C1=O [Example 130, 1-{4-[6-Ethyl-8,8-dimethyl-2-(8-oxa-3-azabicyclo[3.2.1]oct-3-yl)-5-oxo-5,6,7,8-tetrahydro-9-oxa-1,3,6-triazabenzocyclohepten-4-yl]-2-fluorophenyl}-3-(1-methylpiperidin-4-ylmethyl)urea]	2120	>10000	> 10000	> 3000	–
CCN1CC(C)(C)Oc2nc(N3CC4CCC(C3)O4)nc(-c3ccc(NC(=O)NCCOC)c(F)c3)c2C1=O [Example 131, 1-{4-[6-Ethyl-8,8-dimethyl-2-(8-oxa-3-azabicyclo[3.2.1]oct-3-yl)-5-oxo-5,6,7,8-tetrahydro-9-oxa-1,3,6-triazabenzocyclohepten-4-yl]-2-fluorophenyl}-3-(2-methoxyethyl)urea]	383	>10000	5900	1990	–
CCNC(=O)Nc1ccc(-c2nc(N3CC4CCC(C3)O4)nc3c2C(=O)N(C2CCN(C)CC2)CC(C)(C)O3)cc1 [Example 132, 1-{4-[8,8-Dimethyl-6-(1-methylpiperidin-4-yl)-2-(8-oxa-3-azabicyclo[3.2.1]oct-3-yl)-5-oxo-5,6,7,8-tetrahydro-9-oxa-1,3,6-triazabenzocyclohepten-4-yl]phenyl}-3-ethylurea]	245	4320	> 10000	> 3000	–
CCN1CC(C)(C)Oc2nc(N3CC4CCC(C3)O4)nc(-c3ccc(NC(=O)NC4CC4)c(F)c3)c2C1=O [Example 133, 1-Cyclopropyl-3-{4-[6-ethyl-8,8-dimethyl-2-(8-oxa-3-azabicyclo[3.2.1]oct-3-yl)-5-oxo-5,6,7,8-tetrahydro-9-oxa-1,3,6-triazabenzocyclohepten-4-yl]-2-fluorophenyl}urea]	33	>10000	219	92	–
CCN1CC(C)(C)Oc2nc(N3CC4CCC(C3)O4)nc(-c3ccc(NC(=O)NCC4CCOCC4)c(F)c3)c2C1=O [Example 134, 1-{4-[6-Ethyl-8,8-dimethyl-2-(8-oxa-3-azabicyclo[3.2.1]oct-3-yl)-5-oxo-5,6,7,8-tetrahydro-9-oxa-1,3,6-triazabenzocyclohepten-4-yl]-2-fluorophenyl}-3-(tetrahydropyran-4-ylmethyl)urea]	3160	>10000	> 10000	> 3000	–
CCN1CC(C)(C)Oc2nc(N3CC4CCC(C3)O4)nc(-c3ccc(NC(=O)Nc4ccon4)c(F)c3)c2C1=O [Example 135, 1-{4-[6-Ethyl-8,8-dimethyl-2-(8-oxa-3-azabicyclo[3.2.1]oct-3-yl)-5-oxo-5,6,7,8-tetrahydro-9-oxa-1,3,6-triazabenzocyclohepten-4-yl]-2-fluorophenyl}-3-isoxazol-3-ylurea]	11	6525	112	26	–
CCN1CC(C)(C)Oc2nc(N3CC4CCC(C3)O4)nc(-c3ccc(NC(=O)Nc4cnc(OC)nc4)c(F)c3)c2C1=O [Example 136, 1-{4-[6-Ethyl-8,8-dimethyl-2-(8-oxa-3-azabicyclo[3.2.1]oct-3-yl)-5-oxo-5,6,7,8-tetrahydro-9-oxa-1,3,6-triazabenzocyclohepten-4-yl]-2-fluorophenyl}-3-(2-methoxypyrimidin-5-yl)urea]	34	>10000	239	37	–
CCN1CC(C)(C)Oc2nc(N3CC4CCC(C3)O4)nc(-c3ccc(NC(=O)NC4COC4)c(F)c3)c2C1=O [Example 137, 1-{4-[6-Ethyl-8,8-dimethyl-2-(8-oxa-3-azabicyclo[3.2.1]oct-3-yl)-5-oxo-5,6,7,8-tetrahydro-9-oxa-1,3,6-triazabenzocyclohepten-4-yl]-2-fluorophenyl}-3-oxetan-3-ylurea]	29	>10000	1330	241	–
CCN1CC(C)(C)Oc2nc(N3CC4CCC(C3)O4)nc(-c3ccc(NC(=O)Nc4ccc(F)c(OC)c4)c(F)c3)c2C1=O [Example 138, 1-{4-[6-Ethyl-8,8-dimethyl-2-(8-oxa-3-azabicyclo[3.2.1]oct-3-yl)-5-oxo-5,6,7,8-tetrahydro-9-oxa-1,3,6-triazabenzocyclohepten-4-yl]-2-fluorophenyl}-3-(4-fluoro-3-methoxyphenyl)urea]	299	>10000	331	105	–
